Source: patent US12629355B2, “Drug inhibitor against migration and invasion of cancer cells and methods of treating against metastasis of cancer cells” (HOWARD UNIVERSITY, priority 2019, dated 2026)

Tests used:
Type in all cases: cell-based
[1] = biological target: T1, RACK1 protein (Homo sapiens, UniProt P63244); assay: RACK1 protein expression, western blot (FIG. 7); settings: MCF-7 cells, 6 days, compound added on day 1 and day 4
T1 construct: endogenous in cells; host or cells: MCF-7
Experimental: As to FIG. 7, MCF-7 cells were washed three times in PBS after growth on MEM media for 6 days. The indicated compounds were added on day 1 and day 4 of the treatment. The cells were lysed in the lysis buffer (Cell Signaling, MA) supplemented with protease inhibitor cocktail (Sigma-Aldrich), Protein Tyrosine phosphatase inhibitors (Santa Cruz Biotechnology, TX), and N-Ethylamaleimide (Sigma-Aldrich) at 25 mM to inhibit de-sumoylation. Twenty five micrograms of proteins were loaded on the BIORAD company's 4-12% precast polyacrylamide gel, transferred to a PVDF membrane and then blocked with 5% non-fat milk (Biorad) for one hour, washed and incubated overnight at 4 C with the RACK1 antibody (1:2500 dilution) purchased from the Santa Cruz Biotechnology. After overnight incubation, the membrane was washed 3× in PBST and then incubated with a horseradish peroxidase-coupled mouse secondary antibody for an hour at room temperature and the bands were detected with enhanced chemiluminescence (Pierce, Rockford, IL, USA), according to standard methods. […] This served as the loading control.

[2] = tested on: pY397-FAK; assay: pY397-FAK expression, immunofluorescence (FIG. 15); settings: U251 cells, 96 h, 5 ng/ml TGF-beta
Text: As to FIGS. 14 and 15, in order to evaluate the effect of a representative compound (SD 29-14) as a drug for inducing functional inactivation of RACK1 on the FAK phosphorylation, the drug was used in testing with breast cancer cells (MCF7, FIG. 14) and with glioblastoma cancer cells (U251, FIG. 15). In this immunofluorescence experiment, the pY397-FAK expressing cells were stained with FITC tagged secondary antibody (green) and RACK1 was stained with TRITC tagged secondary antibody (red). Here 5 ng/ml TGFbeta was used to induce cell migration. […] As discussed above, without the pY397-FAK present, the connection between the ECM and cell interiors will be disrupted which will inhibit the cell's potential to migrate by initiating the cell's adhesion to the ECM.
As to FIGS. 14 and 15, and the methods, the immunofluorescence experiments are essentially same as described with reference to FIG. 9 with a slight modification in the duration of the drug treatment. The cancer cells (MCF7 or U251) were incubated with a drug (SD 29-14) or with DMSO (left panel) for 96 h in the presence of 5 ng/ml TGF-beta. After indicated incubation period, the cells were fixed and stained with antibody as described for FIG. 9 methods.

[3] = tested on: U251 cells; assay: Migration through Matrigel, cell shape differentiation (FIG. 16-19)
Experimental: Within 24 h of the placement of the cells on the matrigel, the cells were able to migrate through the matrigel and were captured on the glass coverslip beneath the matrigel layer.
The cells are labeled with an antibody (pY397-FAK) and detected with a rabbit-TRITC secondary antibody. The antibody staining allowed to visualize the cells clearly but the autofluorescence of the Matrigel made it hard to pinpoint the precise localization of the pY397-FAK protein.
As to FIG. 19, and related methods, freshly harvested 10^5 cells in MEM no serum media+/−drugs (500 μl) placed on coverslip covered with 200 μl of 1:12 matrigel diluted with MEM serum free media in a 24 well plate. After 24 h, the matrigel was carefully removed by tilting wells and drawing from the tilted side of the wells and washing thoroughly with PBS to remove the matrigel completely (all crumbs removed as their auto fluorescence makes background during imaging) and then were fixed 10 minutes with 4% paraformaldehyde. Washed 2× with PBS; use 5% Urea to treat the cells at 95 C for 10 minutes, wash 2×PBS; permeabilize with 0.5% saponin in PBS; block cells with 3% BSA in PBST for 30 min; Overnight Primary antibody (ThermoFisher Cat #70025-pFAK397 rabbit at 1:250) in 1% BSA in PBST at 4 C, secondary (Rabbit-TRITC) also 1% BSA in PBST for one hour (1:1000).

RACK1 protein expression [1]: significant of RACK1 proteins
Structure (SMILES): Nn1c(S)nnc1-c1cc(Cl)cc(Cl)c1 [SD 29-14]
expression of pY397-FAK at the cell protrusions [2]: almost completely inhibited | filipodia, invadopodia, lamellipodia structures and cell-cell adhesion during invasion through matrigel ([3]; 10 μM, 24 h (FIG. 17)): those structures where inhibited and the cells mostly maintained their cell-cell adhesion | filipodia, invadopodia, lamellipodia structures and cell-cell adhesion during invasion through matrigel ([3]; 100 μM, 24 h (FIG. 18)): those structures where inhibited and the cells mostly maintained their cell-cell adhesion
